Results published in patent publication US20130225669A1 (priority 2012, published 2013).

Tested on: Bacillus atrophaeus spores
Test: Qualitative antibacterial effects on spore strips in Releasat medium
Type: cell-based
Conditions: one week treatment
Procedure: The antibacterial effects of genipin solutions on Bacillus atrophaeus spores was assessed. Using aseptic technique, B. atrophaeus mini spore strips (N=4 per group) with 1.2×10^6 spores per strip (North American Science Associates, Inc., Northwood, Ohio, USA) were either untreated, or treated with either 1 mL PBS, 0.625% genipin in PBS (1.4×10^13 genipin molecules per spore), 90% ethanol, 10% genipin in 90% ethanol (2.2×10^14 genipin molecules per spore), or 10% formalin for one week. Ten percent genipin was used in 90% ethanol for direct comparison to 10% formalin. Solutions were passed through a 0.2 μm Whatman filter (Fisher Scientific, Pittsburgh, Pa., USA) prior to being used to remove extraneous bacteria.
After treating the spore strips for one week they were transferred to Releasat® rapid-readout color changing vials (SGM Biotech, Bozeman, Mont., USA). Releasat® vials have specially formulated soybean-casein digest medium and a pH indicator designed to change color from orange to yellow in the presence of B. atrophaeus growth within 72 hours or remain orange if the spore strips are sterile. The spore strips treated with 10% genipin in 90% ethanol were removed from their respective medium vials and washed in 10 mL of sterile 90% ethanol for 15 minutes after it was noticed that within 90 minutes of placement into the Releasat® medium that the color changed from orange to brown (genipin-induced color change). These spore strips were placed in new Releasat® vials after washing. Spores were incubated at 37° C. and vials were checked after 24, 48, and 72 hours for color change and assessments of turbidity.

Structure (SMILES) | color of Releasat medium (orange sterile, yellow growth) (10% formalin, read after 72 hours) | turbidity of medium (0.625% genipin in PBS) | color of Releasat medium (orange sterile, yellow growth) (0.625% genipin in PBS, within 24 hours) | turbidity of medium (10% genipin in 90% ethanol) | color of Releasat medium (orange sterile, yellow growth) (10% genipin in 90% ethanol, within 24 hours)
C=O [formalin, reference compound] | remained orange | – | – | – | –
COC(=O)C1=CO[C@@H](O)C2C(CO)=CC[C@H]12 (stereo in doubt) [genipin, methyl (1R,2R,6S)-2-hydroxy-9-(hydroxymethyl)-3-oxabicyclo [4.3.0]nona-4,8-diene-5-carboxylate] | – | less turbid than the PBS and untreated control at all time points | changed to yellow | less turbid than the 90% ethanol and untreated control after 24 and 48 hours only | changed to yellow
